The source of these data is patent US7714014B2, “Targeting GLI proteins in human cancer by small molecules” (The Regents of the University of California, priority 2005, dated 2010).

The structures appear in SMILES notation.

Experiment [1] deals with NSCLC cells A549, H358, and H322. As to the kind of experiment: MTS cell proliferation assay. In kind it is cell-based, human. To be noted: 7.5 μM or 15 μM; dose-dependent, already after 1 day. The text has this: Another assay for determining the number of viable cells in proliferation or cytotoxicity assays is the MTS assay, a calorimetric method. MTS assay reagents are commercially available (Promega Corp., Madison, Wis.). The reagent contains a tetrazolium compound [3-(4,5-dimethylthiazol-2-yl)-5-(3-carboxymethoxyphenyl)-2-(4-sulfophenyl)-2H-tetrazolium, inner salt; MTS] and an electron coupling reagent (phenazine ethosulfate; PES). PES has enhanced chemical stability, which allows it to be combined with MTS to form a stable solution. The MTS tetrazolium compound (Owen.s reagent) is bioreduced by cells into a colored formazan product that is soluble in tissue culture medium. This conversion may be accomplished by NADPH or NADH produced by dehydrogenase enzymes in metabolically active cells. The quantity of formazan product as measured by the absorbance at 490 nm is directly proportional to the number of living cells in culture. Because the MTS formazan product is soluble in tissue culture medium, this assay requires fewer steps than procedures that use tetrazolium compounds such as MTT. The formazan product of MTT reduction is a crystalline precipitate that requires an additional step in the procedure to dissolve the crystals before recording absorbance readings at 570 nm. […]

Experiment [2] concerns NSCLC cell lines H1299, A549, H460 and colon cancer cell line SW480. Nature of the experiment: Cell survival assay (crystal violet), screening. In kind it is cell-based, human. To be noted: 50 and 100 μM, 3 days, all cancer cell lines tested. As to the method:
Typically, the small molecule compounds of the present invention were dissolved in DMSO at a concentration of 30 mM. The small molecule compounds were then tested under cell culture conditions at different concentrations ranging from 0, 10, 30, 50, to 100 uM. To determine cell survival after treatment, the cells were incubated with the small molecule compounds in 6-well plates for about 3 days. After removal of the cell culture medium, 1-ml of 0.5% crystal violet solution (prepared in 20% ethanol and 20% methanol) was added to stain the cells for 5 min. Then the crystal violet solution was rinsed clean with tap water. Cell survival was estimated based on the density of crystal stained plates.
Cancer cell lines were plated in 6-well plates as described, and incubated with 50, and 100 μM of each compound (stocks were dissolved in DMSO at 30 mM) for 3 days. […] Apoptosis analysis was also carried out by using flow cytometry and the results were consistent (data not shown). Therefore, using the rational design design-screen approach described herein, additional small molecule compound, FN1-8, inhibiting GLI3 transcription activation domain (TAF-binding domain) was identified.

For another experiment, the system named is SK-Mel-5 (melanoma). Nature of the experiment: Apoptosis analysis (Annexin V FITC, flow cytometry). In kind it is cell-based, human. As to the method: Apoptosis was analyzed by using an Annexin V FITC Apoptosis Detection Kit (Biosource, Camarillo, Calif.), according to the manufacturer's protocol. After treatment with different small molecule compounds at various concentrations for about 3 days, cells were harvested by trypsinization, stained and immediately analyzed by flow cytometry (FACScan; Decton Dickinson, Franklin Lake, N.J.). Early apoptotic cells with exposed phosphatidylserine but intact cell membranes will bind to Annexin V-FITC, but not propidium iodide (PI). Cells in necrotic or late apoptotic stages will be labeled with both Annexin V-FITC and PI. “% apoptotic cells” or “% apoptosis” refers to the combined early and late apoptotic cells.
Dose titration experiments of small molecule compound FN1-8 was performed using the melanoma cell lines A375, G361, SK-Mel-2, SK-Mel-5, and SK-Mel-28. A 375 cells were plated in 6-well plates and incubated with DM SO (control) or 2 μM, 5 μM, 10 μM, 20 μM, and 40 μM of FN1-8, respectively, for 3 days. A dramatic and dose-dependent cell killing in this cell line was observed when FN1-8 was added at 10 μM or more (data not shown). […] After 4 days of incubation with 20 μM FN1-8, approximately 20% of the Malme-3M cells, 28% of SK-Mel-2 cells, 36% of SK-Mel-5 cells, 41% of A375 cells, and 17% of G361 cells underwent apoptosis, while less than 3% of normal skin fibroblast cells underwent apoptosis under the same conditions (Table 3).

Experiment [3] deals with T1, GLI3-TAFbd peptide / TAFII31 protein (Homo sapiens, UniProt Q16594).
T1 construct: The full-length TAFII31 cDNA insert cloned into the (c-myc-tag)pCDNA3.1 expression vector was used as template; made in house; host or cells: cell-free: TNT quick coupled transcription/translation system (Promega)
T1 sequence (Q16594 whole entry): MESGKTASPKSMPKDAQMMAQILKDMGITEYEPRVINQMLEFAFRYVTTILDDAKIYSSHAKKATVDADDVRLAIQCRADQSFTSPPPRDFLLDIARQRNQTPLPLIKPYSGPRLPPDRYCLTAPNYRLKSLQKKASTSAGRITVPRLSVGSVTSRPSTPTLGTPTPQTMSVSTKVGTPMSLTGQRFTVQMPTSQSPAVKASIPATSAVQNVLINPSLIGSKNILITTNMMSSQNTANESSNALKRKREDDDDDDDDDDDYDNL
As to the kind of experiment: Co-immunoprecipitation of GLI-TAFbd peptide and TAFII31. In kind it is binding. How it is done: (§1) The binding between GLI-TAF binding domain peptides (GLI-TAFbd) and TAFII31 protein was quantified by measuring the intensity of each band of an co-immunoprecipitation experiments with arbitrary unit. The binding after DMSO treatment was set to 100% for each GLI-TAFbd peptide. The binding was interfered by FN1-8 in dose-dependent manner: the binding for GLI1-TAFbd was 73.6% and 33.5%, for GLI2-TAFbd was 73.8% and 60%, for GLI3-TAFbd was 71.6% and 28.6%, after treatment with 20 μM and 50 μM FN1-8, respectively. Details are described in Example 35.
(§2) Specifically for this experiment, biotinylated TAF binding domain of GLI proteins, GLI1, GLI2, and GLI3 (see below) were custom synthesized at Genemed Synthesis, Inc. The GLI-TAF binding domain (GLI-TAFbd) peptide sequences were as follows;
(§3) TAFII31 proteins were prepared by using the TNT quick coupled transcription/translation systems (Promega) according to the manufacturer's protocol. The full-length TAFII31 cDNA insert cloned into the (c-myc-tag)pCDNA3.1 expression vector was used as template in this in vitro translation system. An empty (c-myc-tag)pCDNA3.1 expression vector was used as a control. The biotinylated GLI peptides (i.e., the TAF binding domains of three different GLI proteins) were incubated with the TAFII31 protein in the presence or absence of small molecule compound FN1-8 (at 20 μM and 50 μM). Then the biotinylated GLI-peptide-TAFII31 complexes were precipitated with streptavidine agarose followed by immunoblotting with an anti-c-myc antibody (A-14; Santa Cruz Biotech, Inc.; Cao et al., 2001, Science 293:115-120). […] As a control, there was no pull-down of TAFII31 by all three GLI peptides when the empty (c-myc-tag)pCDNA3.1 expression vector was used in in vitro translation system (FIG. 23).

In experiment [4] the target is T2, GLI1-TAFbd peptide / TAFII31 protein (Homo sapiens, UniProt Q16594).
T2 construct: The full-length TAFII31 cDNA insert cloned into the (c-myc-tag)pCDNA3.1 expression vector was used as template; made in house; host or cells: cell-free: TNT quick coupled transcription/translation system (Promega)
T2 sequence (Q16594 whole entry): as above
The experiment is described as above. In kind it is binding. As to the method:
as §1, §2, §3

For experiment [5], the target named is T3, GLI2-TAFbd peptide / TAFII31 protein (Homo sapiens, UniProt Q16594).
T3 construct: The full-length TAFII31 cDNA insert cloned into the (c-myc-tag)pCDNA3.1 expression vector was used as template; made in house; host or cells: cell-free: TNT quick coupled transcription/translation system (Promega)
T3 sequence (Q16594 whole entry): as above
Described as above. In kind it is binding. As to the method: as §1, §2, §3

On to `O=C(NCCc1ccc(O)cc1)C1C(c2ccccc2)=NN(c2ccccc2)C1c1ccccc1` (stereo not shown) [FN1-8, N-(2-(4-Hydroxyphenyl)ethyl)-1,3,5-triphenyl-4,5-dihydro-pyrazole-4-carboxyamide], for which the “cell proliferation (MTS)” value in experiment [1] is “significantly inhibited cell proliferation”. Also, in experiment [2], the cell killing entry is recorded as “Dramatic cell killing”. The “% of apoptotic cells” value in the experiment with SK-Mel-5 (melanoma) (SK-Mel-5, 10 μM) amounted to 7.9%; with SK-Mel-5 (melanoma) (SK-Mel-5, 20 μM, 4 days of incubation), 34.9%. The “binding of GLI3-TAFbd to TAFII31 (DMSO = 100%)” value in experiment [3] (20 μM) is 71.6%; in experiment [3] (50 μM) it was 28.6%. The “binding of GLI1-TAFbd to TAFII31 (DMSO = 100%)” value is given as 73.6% in experiment [4] (20 μM) and 33.5% in experiment [4] (50 μM). Besides, the entries for the “binding of GLI2-TAFbd to TAFII31 (DMSO = 100%)” value in experiment [5] (20 μM) and in experiment [5] (50 μM) were 73.8% and 60%, respectively.
